Experimental findings from US8247423B2, “Methods and compositions for the treatment of cancer, tumors, and tumor-related disorders” (Tragara Pharmaceuticals, Inc., priority 2007, dated 2012) are described below.

In general, Tmax refers to the time at which the peak concentration occurs. What is called half-life is the time in which the quantity being followed falls by half. A lower half-life goes with fast loss.

This data set can be described thus: clinical. To be noted: human, in vivo, po.

Experimental: Methods: Subjects with recurrent or metastatic NSCLC were treated with erlotinib (150 mg/day PO) and escalating doses of 2-(4-ethoxyphenyl)-4-methyl-1-(4-sulfamoylphenyl)-pyrrole (100-1200 mg/day PO). Pharmacokinetics for 2-(4-ethoxyphenyl)-4-methyl-1-(4-sulfamoylphenyl)-pyrrole and erlotinib were evaluated.

In the case of `CCOc1ccc(-c2cc(C)cn2-c2ccc(S(N)(=O)=O)cc2)cc1`, the Tmax worked out at 2 h and the half-life is 11.8 h.
